Experimental data reported in publication PMC4685510, “A Cell Biologist’s Field Guide to Aurora Kinase Inhibitors” (Frontiers in Oncology, 2015).

Tests used:
Assay in all cases: biochemical
Assay type in all cases: biochemical
[1] = biological target: T1, 363 human kinases (including Aurora A/B/C) (Homo sapiens, UniProt P36896); settings: ALK4/ACVR1B, [ATP] 50 µM; for remaining activity at 0.1 µM: 100 nM; for remaining activity at 0.1 µM / remaining activity at 0.5 µM: read-out: % Enzyme Activity (relative to DMSO controls)
T1 sequence (P36896 24-505): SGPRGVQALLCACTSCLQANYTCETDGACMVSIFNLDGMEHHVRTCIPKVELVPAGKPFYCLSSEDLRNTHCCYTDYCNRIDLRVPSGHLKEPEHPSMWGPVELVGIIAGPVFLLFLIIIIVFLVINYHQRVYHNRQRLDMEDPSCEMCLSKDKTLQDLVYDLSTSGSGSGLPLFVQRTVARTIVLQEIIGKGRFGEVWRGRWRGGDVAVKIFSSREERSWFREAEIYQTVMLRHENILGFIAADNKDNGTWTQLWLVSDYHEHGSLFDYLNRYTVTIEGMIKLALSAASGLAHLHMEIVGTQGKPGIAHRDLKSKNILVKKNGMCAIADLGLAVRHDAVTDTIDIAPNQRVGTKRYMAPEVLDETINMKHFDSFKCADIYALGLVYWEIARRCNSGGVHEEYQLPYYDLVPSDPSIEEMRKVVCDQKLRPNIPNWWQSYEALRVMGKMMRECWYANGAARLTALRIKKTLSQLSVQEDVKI
Text: (§1) However, the Aurora A/B selectivity ratios derived from our in vitro and in vivo data can be compared to prioritize inhibitors.

[2] = biological target: T2, 363 human kinases (including Aurora A/B/C) (Homo sapiens, UniProt P54753); settings: EPHB3, [ATP] 50 µM; for remaining activity at 0.1 µM: 100 nM; for remaining activity at 0.1 µM / remaining activity at 0.5 µM: read-out: % Enzyme Activity (relative to DMSO controls)
T2 sequence (P54753 34-998): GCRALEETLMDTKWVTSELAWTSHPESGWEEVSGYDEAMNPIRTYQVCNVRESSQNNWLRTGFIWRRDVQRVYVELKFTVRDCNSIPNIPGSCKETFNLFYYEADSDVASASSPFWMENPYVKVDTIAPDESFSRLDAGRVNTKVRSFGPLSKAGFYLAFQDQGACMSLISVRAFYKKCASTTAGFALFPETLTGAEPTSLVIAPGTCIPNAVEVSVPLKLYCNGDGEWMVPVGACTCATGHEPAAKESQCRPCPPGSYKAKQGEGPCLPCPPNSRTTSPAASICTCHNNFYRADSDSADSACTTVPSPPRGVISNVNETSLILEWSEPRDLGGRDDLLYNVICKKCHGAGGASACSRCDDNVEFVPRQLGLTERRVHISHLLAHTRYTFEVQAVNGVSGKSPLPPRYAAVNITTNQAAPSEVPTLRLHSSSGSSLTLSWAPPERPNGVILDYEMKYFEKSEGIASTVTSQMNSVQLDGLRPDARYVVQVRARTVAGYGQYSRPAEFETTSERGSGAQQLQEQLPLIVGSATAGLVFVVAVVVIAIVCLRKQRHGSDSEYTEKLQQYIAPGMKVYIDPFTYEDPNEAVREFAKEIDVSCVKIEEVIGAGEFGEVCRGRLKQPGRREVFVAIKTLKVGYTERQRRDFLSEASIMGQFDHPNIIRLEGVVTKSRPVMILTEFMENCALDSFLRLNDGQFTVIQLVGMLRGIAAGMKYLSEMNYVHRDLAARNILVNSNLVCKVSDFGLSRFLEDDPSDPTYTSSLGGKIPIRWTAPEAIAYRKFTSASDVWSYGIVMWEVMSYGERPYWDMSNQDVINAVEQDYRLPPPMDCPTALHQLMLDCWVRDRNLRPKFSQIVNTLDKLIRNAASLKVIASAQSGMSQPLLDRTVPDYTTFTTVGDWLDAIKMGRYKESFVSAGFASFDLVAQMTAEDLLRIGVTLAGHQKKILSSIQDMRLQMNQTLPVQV
Text: as §1

[3] = biological target: T3, 363 human kinases (including Aurora A/B/C) (Homo sapiens, UniProt Q13043); settings: MST1/STK4; for remaining activity at 0.1 µM: 100 nM; for remaining activity at 0.1 µM / remaining activity at 0.5 µM: read-out: % Enzyme Activity (relative to DMSO controls)
T3 sequence (Q13043 1-487): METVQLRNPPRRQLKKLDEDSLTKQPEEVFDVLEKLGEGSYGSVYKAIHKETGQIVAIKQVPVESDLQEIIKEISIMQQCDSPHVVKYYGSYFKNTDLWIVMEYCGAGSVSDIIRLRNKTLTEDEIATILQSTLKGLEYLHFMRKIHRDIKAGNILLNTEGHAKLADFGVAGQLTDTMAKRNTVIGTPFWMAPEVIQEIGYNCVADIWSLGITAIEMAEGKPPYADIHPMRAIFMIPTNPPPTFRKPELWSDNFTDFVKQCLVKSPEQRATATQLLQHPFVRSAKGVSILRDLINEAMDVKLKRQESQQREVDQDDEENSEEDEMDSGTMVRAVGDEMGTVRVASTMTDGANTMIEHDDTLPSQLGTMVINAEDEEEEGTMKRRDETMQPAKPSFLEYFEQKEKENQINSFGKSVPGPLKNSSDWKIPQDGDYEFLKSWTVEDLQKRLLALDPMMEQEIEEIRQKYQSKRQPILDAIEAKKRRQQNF
Text: as §1

[4] = biological target: T4, 363 human kinases (including Aurora A/B/C) (Homo sapiens, UniProt Q8IVT5); settings: KSR1; for remaining activity at 0.1 µM: 100 nM; for remaining activity at 0.1 µM / remaining activity at 0.5 µM: read-out: % Enzyme Activity (relative to DMSO controls)
T4 sequence (Q8IVT5 1-923): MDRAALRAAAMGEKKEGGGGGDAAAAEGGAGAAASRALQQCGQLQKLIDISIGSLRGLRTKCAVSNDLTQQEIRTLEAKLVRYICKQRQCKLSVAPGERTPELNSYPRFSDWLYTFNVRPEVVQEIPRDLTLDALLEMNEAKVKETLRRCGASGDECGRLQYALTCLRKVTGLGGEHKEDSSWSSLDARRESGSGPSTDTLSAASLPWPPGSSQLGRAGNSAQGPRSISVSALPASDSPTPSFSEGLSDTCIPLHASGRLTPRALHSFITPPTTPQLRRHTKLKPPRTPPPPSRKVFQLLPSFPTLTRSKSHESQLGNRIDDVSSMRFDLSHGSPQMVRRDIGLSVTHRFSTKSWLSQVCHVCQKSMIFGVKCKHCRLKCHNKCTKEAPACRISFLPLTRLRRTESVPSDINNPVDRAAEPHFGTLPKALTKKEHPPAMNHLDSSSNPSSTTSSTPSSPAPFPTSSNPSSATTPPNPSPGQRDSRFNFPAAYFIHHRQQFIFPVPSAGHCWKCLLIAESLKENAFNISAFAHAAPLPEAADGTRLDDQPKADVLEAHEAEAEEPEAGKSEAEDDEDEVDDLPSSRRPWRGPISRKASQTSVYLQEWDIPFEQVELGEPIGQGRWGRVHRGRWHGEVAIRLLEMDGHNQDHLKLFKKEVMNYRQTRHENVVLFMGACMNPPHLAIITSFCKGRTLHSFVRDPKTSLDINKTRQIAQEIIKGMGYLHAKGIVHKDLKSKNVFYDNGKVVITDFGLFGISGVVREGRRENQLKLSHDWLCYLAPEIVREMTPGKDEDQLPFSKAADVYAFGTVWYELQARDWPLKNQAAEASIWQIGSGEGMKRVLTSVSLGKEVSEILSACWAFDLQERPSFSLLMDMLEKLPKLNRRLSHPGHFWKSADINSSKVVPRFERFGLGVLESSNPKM
Text: as §1

SMILES	remaining activity at 0.1 µM [1] [%]	remaining activity at 0.1 µM [2] [%]	remaining activity at 0.1 µM [3] [%]	remaining activity at 0.1 µM [4] [%]	remaining activity at 0.5 µM ([1]; 500 nM) [%]	remaining activity at 0.5 µM ([2]; 500 nM) [%]	remaining activity at 0.5 µM ([3]; 500 nM) [%]	remaining activity at 0.5 µM ([4]; 500 nM) [%]	% Enzyme Activity (relative to DMSO controls) ([1]; 500 nM) [%]	% Enzyme Activity (relative to DMSO controls) ([2]; 500 nM) [%]	% Enzyme Activity (relative to DMSO controls) ([3]; 500 nM) [%]	% Enzyme Activity (relative to DMSO controls) ([4]; 500 nM) [%]
CCn1cc(-c2ccnc3[nH]c(-c4cccc(CN(C)C)c4)cc23)c(-c2ccc(NC(=O)N(C)C)cc2)n1 [GSK1070916]	102	94.5	105	94.2	–	–	–	–	–	–	–	–
O=C(O)[C@]1(Cc2cccc(Nc3nccs3)n2)CC[C@@H](Oc2cccc(Cl)c2F)CC1 [MK-5108]	106	102	81.8	98.6	92.9	89.5	65.6	98	–	–	–	–
O=C(c1cccc(Cl)c1F)N1CCN(Cc2cccc(Nc3nccs3)n2)CC1 [MK-8745]	–	–	–	–	137	93	46.6	93.4	133.43	92.59	46.49	92.75
